Assay [1] concerns TCRP1A CD8^+ T cells, Treg cells and PMN-MDSCs infiltrating TiRP tumors. Briefly: FACS analysis of tumor-infiltrating cells in TiRP-tumor bearing mice after adoptive cell transfer (ACT). Type of assay: in vivo. Particulars: for tumor infiltration of the transferred TCRP1A CD8+ T cells / survival of the transferred TCRP1A CD8+ T cells (apoptosis, annexin V): 14 days after ACT, CTX 100 mg/kg one day before ACT and/or metformin 0.5 mg/ml drinking water; for tumor infiltration of the transferred TCRP1A CD8+ T cells: FIG. 3A; for survival of the transferred TCRP1A CD8+ T cells (apoptosis, annexin V): FIG. 3B. An excerpt:
(§1) TiRP mice have been created by crossing Ink4a/Arf^flox/flox mice with mice carrying a transgenic construct controlled by the tyrosinase promoter and driving the expression of H-Ras^12V and Trap 1 a which encodes a MAGE-type tumor antigen P1A; the promoter is separated from the coding region by a stop cassette made of a floxed self-deleting CreER (Huijbers et al., 2006, Cancer Res 66, 3278-3286). Those mice were backcrossed to a B10.D2 background and bred to homozygosity. TCRP1A mice heterozygous for the H-2Ld/P1A35-43-specific TCR transgene were kept on the B10.D2;Rag1^−/− background (Shanker et al., 2004, J Immunol 172, 5069-5077).
(§2) A fresh solution of 4OH-Tamoxifen was prepared by dissolving 4OH-Tamoxifen (Imaginechem) in 100% ethanol and mineral oil (ratio 1:9) followed by 30-min sonication, and injected subcutaneously (2 mg/200 μl per mouse) in the neck area of gender-matched 7 weeks old TiRP mice. Tumor appearance was monitored daily and tumors were measured three times/week. Tumor volume (in mm^3) was calculated by the following formula: Volume=width^2×length×π/6. Tumor-bearing TiRP mice were randomized based on the tumor size when average volume was 500 mm^3 and treated as indicated. For cyclophosphamide (CTX, Sigma C7397) treatment, mice received an intra-peritoneal injection of CTX at 100 mg/kg or vehicle (PBS) 24 h before adoptive cell transfer. For metformin treatment, metformin (Enzo, ALX-270-432) was dissolved in mice drinking water at a concentration of 0.5 mg/ml and administered to the mice from the moment of adoptive cell transfer until the end of the experiment; the solution was replaced three times/week.
(§3) For the adoptive cell transfer (ACT), P1A-specific (TCRP1A) CD8^+ T cells were isolated from spleens and lymph nodes of TCRP1A mice using anti-mouse CD8α (Ly-2) MicroBeads (Miltenyi Biotec), and stimulated in vitro by co-culture with irradiated (10.000 rads) L1210.P1A.B7-1 cells (Gajewski et al., 1995, J Immunol 154, 5637-5648) at 1:2 ratio (0.5×10^5 CD8^+ T cells and 10^5 L1210.P1A.B7-1 cells per well in 48-well plates) in IMDM (GIBCO) containing 10% fetal bovine serum supplemented with L-arginine (0.55 mM, Merck), L-asparagine (0.24 mM, Merck), glutamine (1.5 mM, Merck), betamercaptoethanol (50 μM, Sigma), 50 Uml^−1 penicillin and […] streptomycin (Life Technologies). Four days later, TCRP1A CD8^+ T cells were purified on a Lymphoprep gradient (StemCell) and 10^7 living cells were injected intravenously in 200 μl PBS in TiRP-tumor bearing mice.
For hypoxia detection, mice received an intraperitoneal injection of pimonidazole hydrochloride at 60 mg/kg (Hypoxyprobe) 45 minutes before tumor harvesting. Tumor single cell suspension was prepared using gentleMACS Dissociator and incubating the tissue in RMPI containing 0.04% collagenase I, 0.04% collagenase II and 0.05% dispase (all from GIBCO) for 1 hour at 37° C. After passing the cell suspension through a 70 μm- and 40 μm-cell strainer, red blood cell lysis was performed (eBioscience, 00-4300-54). Tumor cell preparation was stained with the Viability dye eFluor780 (eBioscience, 1:1000) to identify dead cells during the FACS analysis, and then incubated with Mouse BD Fc Block (BD, clone 2.4G2, 1:100) in PBS supplemented with 2% FBS and 2 mM EDTA. TCRP1A CD8^+ T cells were labeled by using H-2L^d PIA tetramer-PE (1 μM, produced in-house at the Ludwig Institute for Cancer Research) and anti-CD8α BV-421 (BioLegend, 53-6.7, 1:200); for apoptosis quantification, Annexin V APC (BioLegend, 1:20) was used. Hypoxic cells were identified with the anti-pimonidazole antibody (Hypoxyprobe, HP-FITC-Mab 4.3.11.3, 1:100) after cell fixation and permeabilization according to manufacturer's instructions (eBioscience Transcription Factor Staining Buffer Set).
On the technique in general: A flow cytometer gives signals particle by particle.

Assay [2] concerns TiRP mice (genetically engineered mouse melanoma model). Briefly: Tumor growth, tumor weight and survival of TiRP mice with or without ACT. Type of assay: in vivo. Particulars: for tumor response to the immunotherapy (tumor growth) / tumor growth and tumor weight 14 days after ACT / tumor growth in the presence of ACT: TiRP mice with ACT; for tumor response to the immunotherapy (tumor growth): up to 22 days after ACT, FIG. 6A; for tumor growth and tumor weight 14 days after ACT: CTX 100 mg/kg the day before ACT and/or metformin 0.5 mg/ml for 14 days, FIG. 5; for tumor growth in the presence of ACT / tumor growth in absence of ACT: FIG. 7; for tumor growth in absence of ACT: TiRP mice without ACT.
From the text: as §1, §2, §3
Data entry and all analyses were performed in a blinded fashion. All statistical analyses were performed using GraphPad Prism software. Statistical significance was calculated by two-tailed unpaired t-test on two experimental conditions or two-way analysis of variance (ANOVA) when repeated measures were compared, with p<0.05 considered statistically significant. Independent experiments were pooled and analyzed together whenever possible. All graphs show mean values±s.e.m.

The subject of assay [3] is B16F1 melanoma tumors. Briefly: B16F1 melanoma tumor growth with anti-PD-1 antibody or isotype control. Type of assay: in vivo, mice. The conditions noted are these: FIG. 8A; for growth of B16F1 melanoma tumors, single treatment: B6 mice. From the text: (§4) Gender and age matched […] wild-type mice were used for the experiments with checkpoint inhibitors.
(§5) For the experiments with checkpoint inhibitors, gender matched, 7-9 weeks old […] wild-type mice were subcutaneously injected with 1 million of B16F1 or MC38 tumor cells. Mice were randomized based on the tumor size one week after the injection of tumor cells (B16F1 melanoma model) or when the average tumor size was between 90 and 120 mm^3 (MC38 colon carcinoma model). Tumor-bearing mice were then treated with CTX or PBS as described above. One day after, metformin was prepared as mentioned above and added to the mice drinking water until the end of the experiment. A dose of 100 μg/mouse of anti-PD-1 antibody (clone RMP1-14, Bio-X-Cell) or RatIgG2a isotype (clone 2A3, Bio-X-Cell) was injected intraperitoneally three times (B16F1 model) or four times (MC38 model) every three or four days starting from the day after CTX or PBS treatment.

For assay [4], the system named is MC38 colon carcinoma. Description: MC38 colon carcinoma tumor rejection with anti-PD-1 antibody. Type of assay: in vivo, mice. Particulars: MC38, 16 days after treatment, associated with the PD-1 inhibitor; FIG. 9B-D.
From the text: as §4, §5

SMILES strings stand for the structures.

The values below come from patent US20210244814A1, “COMBINATION OF METFORMIN AND CYCLOPHOSPHAMIDE AS AN ADJUVANT IN CANCER IMMUNOTHERAPY” (UNIVERSITÉ CATHOLIQUE DE LOUVAIN, priority 2018, published 2021).

In the case of `O=P1(N(CCCl)CCCl)NCCCO1` (stereo not drawn) [cyclophosphamide, 2-[bis(2-chloroethyl)amino]-1,3,2λ^5-oxazaphosphinan-2-one], the “tumor infiltration of Treg cells” value in assay [1] (4 days after ACT, single injection of CTX 100 mg/kg one day before ACT, FIG. 2A) was “reduced”. Also, the “tumor infiltration of PMN-MDSCs” value in assay [1] (4 days after ACT, single injection of CTX 100 mg/kg one day before ACT, FIG. 2B) is listed as “reduced”. Moreover, in assay [1], the “tumor infiltration of the transferred TCRP1A CD8+ T cells” value is reported as “increase” and the “survival of the transferred TCRP1A CD8+ T cells (apoptosis, annexin V)” value is recorded as “increase”. For the same compound, in assay [2], the “tumor response to the immunotherapy (tumor growth)” value is “did induce a significant tumor response”; the “tumor growth and tumor weight 14 days after ACT” value is on record as “allowed an inhibition of the tumor growth”; the “tumor growth in the presence of ACT” value was “tumor response was improved by the immunotherapy”; the “tumor growth in absence of ACT” value is on record as “significantly reduced tumor growth”. The “growth of B16F1 melanoma tumors, single treatment” value in assay [3] is given as “induced per se a significant tumor response”. For the same compound, the “mice that had rejected the tumor” value in assay [4] came to 40%.

In the case of `CN(C)C(=N)N=C(N)N` [metformin, 3-(diaminomethylidene)-1,1-dimethylguanidine], in assay [1] (4 days after ACT, metformin 0.5 mg/ml in drinking water from ACT, vs vehicle, FIG. 1A), the “infiltration of TCRP1A CD8^+ T cells in the tumor” value is on record as “significantly increased”. For the same compound, the “recruitment of TCRP1A CD8^+ T cells to the hypoxic regions of the tumor” value in assay [1] (4 days after ACT, metformin 0.5 mg/ml in drinking water, pimonidazole-positive, FIG. 1B) is recorded as “allowed the recruitment”. Also, in assay [1], the “tumor infiltration of the transferred TCRP1A CD8+ T cells” value is “increased tumor infiltration” and the “survival of the transferred TCRP1A CD8+ T cells (apoptosis, annexin V)” value is on record as “increased survival”. For the same compound, in assay [2], the “tumor response to the immunotherapy (tumor growth)” value is recorded as “did not seem to induce a significant tumor response”; the “tumor growth and tumor weight 14 days after ACT” value is listed as “seemed to partially reduce tumor growth”; the “tumor growth in the presence of ACT” value is “did not inhibit tumor growth”; the “tumor growth in absence of ACT” value is on record as “did not inhibit tumor growth”. Also, in assay [3], the “growth of B16F1 melanoma tumors, single treatment” value is “not significantly affected”. In addition, in assay [3] (B16F1, associated with anti-PD-1 antibody 100 μg on day 0, 3, 7, C, D), the “tumor response to the PD-1 inhibitor” value is on record as “did not seem to induce a significant tumor response”. Further, the “mice that had rejected the tumor” value in assay [4] amounted to 20%.
